In assay [1] the test system is normal rats. The assay is described as follows: Hypoglycaemic activity on OGTT of normal rats (sucrose-loaded rat model). The format is in vivo, Sprague Dawley rats. As to conditions: 100-mg/kg, oral, 120 min post glucose load. On the procedure:
Sucrose-Loaded Rat Model:
Overnight fasted male Sprague Dawley rats were used for the sucrose-loaded experiment. Blood was collected at ‘0’ min from the tail vein of the animals. After the ‘0’ min blood collection, samples/drugs were given to the test group consisting of 5 rats by oral gavage at a dose of 100 mg/kg. Half an hour post test sample treatment, a sucrose-load of 10.0 gm/kg body weight was given to each rat. The blood was collected at 30, 60, 90 & 120 min post sucrose-load.
The antidiabetic effect of test compounds (compound no. 1 and 4) and standard drug Glybenclamide, Gliclazide on OGTT of normal rats was determined.

In assay [2] the test system is STZ-induced diabetic rats. As to the kind of experiment: Streptozotocin-induced diabetic rat model, single-dose effect on blood glucose. Format: in vivo, Sprague Dawley rats. The note with it: 100 mg/kg; for lowering on blood glucose in STZ-induced diabetic rats: 1 to 7 hours post drug administration; for start of blood glucose lowering post drug administration: STZ-induced diabetic rats. As to the method:
Streptozotocin-Induced Diabetic Rat Model:
Single-dose effect; Sprague Dawley strain male albino rats of average body weight 160±20 g were selected for this study. A calculated amount of the fresh solution of STZ dissolved in 100 mM citrate buffer (ph 4.5) was injected to overnight fasted rats (60 mg/Kg) intraperitoneally. Blood was checked for glucose content 48 h later by glucometer & animals showing blood glucose profile above 250 mg/dl were selected and were divided into different groups. Blood-glucose levels were again tested at 1, 2, 3, 4, 5, 6, 7 and 24 h post test sample/drug administration. Food but not water was withdrawn from the cages during the experiment.
The effect of Test compound 1 and standard antidiabetic drug Glybenclamide and gliclazide on blood glucose lowering in STZ-induced diabetic rats were determined. […] The lowering started from 1-hour that persisted up to 7-hours post drug administration.

Assay [3] has as its system HFD fed dyslipemic hamsters. As to the kind of experiment: Dyslipemic hamster model (fructose rich high fat diet). Format: in vivo, golden syrian hamster. The text has this: (b) Dyslipemic Hamster Model: Male golden syrian hamster weighing 120–130 gm were divided into control, dyslipemic and dyslipemic plus drug treated group of 8 animals in each.
Dyslipemia was produced by feeding with fructose rich high fat diet(HFD). Dyslipemic hamsters had free acccess to HFD and water ad. Lib for 10 days (day 1 to day 10). Compound 1 was macerated in vehicle containing 0.2% CMC+0.4% tween-80 in distilled water and fed orally at the dose of 300[…] mole/kg from day 4 to day 10 simultaneously with HFD feeding to hamster. Control animals received same amount of vehicle. At the end of the experiment on 10th day, blood was withdrawn and plasma was used for assay of triglyceride(Tg), cholesterol(chol), high density lipoprotein(HDL), glucose, glycerol and free fatty acids(FFA) by standard spectrophotometric methods on auto analyser. In another set of experiment antidyslipemic activity of fenofibrate at the dose of 1000[…] mole/kg was evaluated.

Assay [4] concerns hyperlipedemic rats (triton WR-1339). As to the kind of experiment: Lipid lowering activity, Triton model (triton WR-1339 induced hyperlipedemia). The format is in vivo, Charles foster rats. The note with it: 100 mg/kg oral simultaneously with triton, plasma after 18 hrs, vs hyperlipemic group. On the procedure: (a)Triton Model: Male Charles foster rats weighing 200–225 g were divided into control, hyperlipedemic and hyperlipedemic plus drug treated groups containing six animals each. Hyperlipedemia was induced by administration of triton WR-1339(400 mg/kg,IP). All animals were maintained on standard pellet diet and water ad lib. Test compound no. 1 and Gugulipid (standard drug) were macerated with 2% aqueous gum acacia and this suspension was fed orally at the dose of 100 mg/kg simultaneously with triton. The animals of control group received same amount of gum acacia. At the end of experiment, after 18 hrs, blood was withdrawn from retro orbital plexus and plasma was used for the assay of total cholesterol, phospholipid and triglyceride by standard spectrophotometric method. Results: Administration of triton in rats produced marked hyperlipedemia as observed by the increased levels of plasma cholesterol, phospholipid and triglyceride by 2.92, 3.32, 3.64 folds respectively (Table-1).

[5] abbreviates: 1000 μmol/kg, another set of experiment.
The mark [6] stands for this setting: dose 1000 (μ)mole/kg, HFD fed dyslipemic hamsters.
Where [7] appears, read: 300 μmol/kg oral day 4 to day 10, plasma on 10th day.
Where [8] appears, read: dose 300 (μ)mole/kg, HFD fed hamsters.

Marks after values point to notes of the source that are not given here.

For `Cc1ccc(S(=O)(=O)NC(=O)NN2CC3CCCC3C2)cc1` (stereo not drawn) [Gliclazide], the “lowering on OGTT of normal rats” value in assay [1] is listed as 44.8%. Further, in assay [2], the “lowering on blood glucose in STZ-induced diabetic rats” value (“lowering on blood glucose” below) came out at 27.7% and the “start of blood glucose lowering post drug administration” value was 1 h.
With `CC(C)OC(=O)C(C)(C)Oc1ccc(C(=O)c2ccc(Cl)cc2)cc1` [Fenofibrate], in assay [3] (setting [5]), the “per cent change in CHOL” value is reported as −30** per cent, the “per cent change in FFA” value was −53** per cent, the “per cent change in GLU” value is −33** per cent and the “per cent change in GLY” value was −52** per cent. Further, in assay [3] (setting [5]), the “per cent change in HDL” value was “+33** per cent” and the “per cent change in TG” value was −77** per cent. Also, in assay [3] (setting [6]), the “increase in plasma HDL” value came to 33%, the “lowering in plasma FFA” value is on record as 53%, the “lowering in plasma Tg” value came to 77% and the “lowering in plasma chol” value turned out to be 30%. Further, in assay [3] (setting [6]), the “lowering in plasma glucose” value was 33% and the “lowering in plasma glycerol” value is reported as 52%.
With `COc1ccc(Cl)cc1C(=O)NCCc1ccc(S(=O)(=O)NC(=O)NC2CCCCC2)cc1` [Glybenclamide], the “lowering on OGTT of normal rats” value in assay [1] is 33.9%. Moreover, in assay [2], the “lowering on blood glucose” value was 32.8% and the “start of blood glucose lowering post drug administration” value was 1 h.
For `COc1ccc(NCCCOc2ccc3ccccc3c2)cc1` [Compound 1, N-(4-Methoxyphenyl)-[3-(naphthalen-2-yloxy)propyl]amine], the “lowering on OGTT of normal rats” value in assay [1] was 33.6%. In assay [4], the “% lowering of plasma lipids: Triglyceride” value was determined as 28%. For the same compound, in assay [4] (listed as Test Compound 1), the “% lowering of plasma lipids: Cholesterol” value was 26* %, the “% lowering of plasma lipids: Phospholipid” value is on record as 33** % and the “% lowering of plasma lipids: Triglyceride” value is recorded as 28* %. In assay [2], the “lowering on blood glucose” value came to 28.0% and the “start of blood glucose lowering post drug administration” value is 1 h. Also, in assay [3] (setting [7]), the “per cent change in CHOL” value was −8 per cent, the “per cent change in GLU” value is listed as −31** per cent, the “per cent change in GLY” value is reported as −14 per cent and the “per cent change in HDL” value is reported as “+15 per cent”. The “per cent change in TG” value in assay [3] (setting [7]) is given as −48** per cent. Moreover, in assay [3] (setting [8]), the “change in FFA levels” value is reported as “No significant change”, the “increase in plasma HDL” value worked out at 15%, the “reduced level of plasma Tg” value was determined as 48% and the “reduced level of plasma chol” value turned out to be 8%. In assay [3] (setting [8]), the “reduced level of plasma glucose” value was 31% and the “reduced level of plasma glycerol” value is 14%.

Values taken from patent US7081465B2, “Alpha-substituted naphthyloxy omega-substituted alky/aryl amino-substituted alkane derivatives as agent for treatment or prophylaxis of diabetes and related metabolic disorders” (Council of Scientific and Industrial Research, priority 2003, dated 2006).
